In patent publication US10597388B2, “Pyridazinone herbicides” (FMC CORPORATION, priority 2014, dated 2020):

Key:
Assay type in all cases: in vivo
[1] = tested on: barnyardgrass (Echinochloa crus-galli); experiment: Test B flooded paddy test; settings: 250 g ai/ha, Flood; visual rating on scale of 0 to 100 where 0 is no effect and 100 is complete control; 13 to 15 d after treatment
Procedure: (§1) Plant species in the flooded paddy test selected from rice (Oryza sativa), sedge, umbrella (small-flower umbrella sedge, Cyperus difformis), ducksalad (Heteranthera limosa), and barnyardgrass (Echinochloa crus-galli) were grown to the 2-leaf stage for testing. At time of treatment, test pots were flooded to 3 cm above the soil surface, treated by application of test compounds directly to the paddy water, and then maintained at that water depth for the duration of the test. Treated plants and controls were maintained in a greenhouse for 13 to 15 d, after which time all species were compared to controls and visually evaluated. Plant response ratings, summarized in Table B, are based on a scale of 0 to 100 where 0 is no effect and 100 is complete control. A dash (-) response means no test result.

[2] = tested on: sedge, umbrella (small-flower umbrella sedge, Cyperus difformis); experiment: Test B flooded paddy test; settings: 250 g ai/ha, Flood; visual rating on scale of 0 to 100 where 0 is no effect and 100 is complete control; 13 to 15 d after treatment
Procedure: as §1

[3] = tested on: ducksalad (Heteranthera limosa); experiment: Test B flooded paddy test; settings: 250 g ai/ha, Flood; visual rating on scale of 0 to 100 where 0 is no effect and 100 is complete control; 13 to 15 d after treatment
Procedure: as §1

rice (Oryza sativa) = experiment: Test B flooded paddy test; settings: 250 g ai/ha, Flood; visual rating on scale of 0 to 100 where 0 is no effect and 100 is complete control; 13 to 15 d after treatment
Procedure: as §1

[4] = tested on: blackgrass (Alopecurus myosuroides); experiment: Test A greenhouse herbicide test, postemergence; settings: for Blackgrass plant response rating: 0 is no effect, 100 is complete control
In short: (§2)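 Visual injury score, 0 (no effect) to 100 (complete control), versus untreated controls roughly 10 d after postemergence spray; plants at one- to two-leaf stage, 2 to 10 cm tall, in loam soil and sand, kept in greenhouse.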

[5] = tested on: galium (catchweed bedstraw, Galium aparine); experiment: Test A greenhouse herbicide test, postemergence; settings: for Galium plant response rating: 0 is no effect, 100 is complete control
In short: as §2

[6] = tested on: wheat (Triticum aestivum); experiment: Test A greenhouse herbicide test, pre- and postemergence; settings: Postemergence; for Wheat plant response rating: 0 is no effect, 100 is complete control
Excerpt: (§3) Seeds of plant species selected from barnyardgrass (Echinochloa crus-galli), kochia (Kochia scoparia), ragweed (common ragweed, Ambrosia elatior), ryegrass, Italian (Italian ryegrass, Lolium multiflorum), crabgrass, large (large crabgrass, Digitaria sanguinalis), foxtail, giant (giant foxtail, Setaria faberii), momingglory (Ipomoea spp.), pigweed (Amaranthus retroflexus), velvetleaf (Abutilon theophrasti), wheat (Triticum aestivum), and corn (Zea mays) were planted into a blend of loam soil and sand and treated preemergence with a directed soil spray using test chemicals formulated in a non-phytotoxic solvent mixture which included a surfactant.
(§4) At the same time, plants selected from these crop and weed species and also blackgrass (Alopecurus myosuroides), and galium (catchweed bedstraw, Galium aparine) were planted in pots containing the same blend of loam soil and sand and treated with postemergence applications of test chemicals formulated in the same manner. Plants ranged in height from 2 to 10 cm and were in the one- to two-leaf stage for the postemergence treatment. Treated plants and untreated controls were maintained in a greenhouse for approximately 10 d, after which time all treated plants were compared to untreated controls and visually evaluated for injury. Plant response ratings, summarized in Table A, are based on a 0 to 100 scale where 0 is no effect and 100 is complete control. A dash (-) response means no test result.

corn (Zea mays) = experiment: as above; settings: Postemergence; for Corn plant response rating: 0 is no effect, 100 is complete control
Excerpt: as §3, §4

[7] = tested on: ragweed (common ragweed, Ambrosia elatior); experiment: as above
Excerpt: as §3, §4

[8] = tested on: barnyardgrass (Echinochloa crus-galli); experiment: as above
Excerpt: as §3, §4

[9] = tested on: pigweed (Amaranthus retroflexus); experiment: as above
Excerpt: as §3, §4

[10] = tested on: ryegrass, Italian (Italian ryegrass, Lolium multiflorum); experiment: as above
Excerpt: as §3, §4

kochia (Kochia scoparia) = experiment: as above
Excerpt: as §3, §4

[11] = tested on: foxtail, giant (giant foxtail, Setaria faberii); experiment: as above
Excerpt: as §3, §4

[12] = 125 g ai/ha, 0 to 100 scale where 0 is no effect and 100 is complete control
[13] = Postemergence, 125 g ai/ha, 0 to 100 scale where 0 is no effect and 100 is complete control
[14] = Postemergence, 500 g ai/ha, 0 to 100 scale, 0 is no effect, 100 is complete control
[15] = Preemergence, 125 g ai/ha, 0 to 100 scale where 0 is no effect and 100 is complete control
[16] = Preemergence, 500 g ai/ha, 0 to 100 scale where 0 is no effect and 100 is complete control
[17] = 125 g ai/ha, 0 to 100 scale, 0 no effect, 100 complete control
[18] = 500 g ai/ha, visual rating after approx. 10 d, 0 to 100 scale (0 no effect, 100 complete control)
[19] = Postemergence, 125 g ai/ha, 0 to 100 scale, 0 no effect, 100 complete control
[20] = Postemergence, 500 g ai/ha, visual rating after approx. 10 d, 0 to 100 scale (0 no effect, 100 complete control)
[21] = Preemergence, 125 g ai/ha, visual injury rating, 0 to 100 scale (0 no effect, 100 complete control), approx. 10 d

Compound: COc1nn(C)c(=O)c(-c2c(C(F)F)ccc3ccccc23)c1O [Compound 86]
- Plant response rating, Barnyardgrass [1]: 0
- Plant response rating, Sedge, Umbrella [2]: 60
- Plant response rating, Ducksalad [3]: 20
- Plant response rating, Rice (rice (Oryza sativa)): 15
- Plant response rating, Blackgrass [4, 12]: 10
- Blackgrass plant response rating ([4]; 500 g ai/ha, 0 to 100 scale): 30
- Plant response rating, Galium [5, 12]: 90
- Galium plant response rating ([5]; 500 g ai/ha, 0 to 100 scale): 100
- Plant response rating, Wheat [6, 12]: 0
- Wheat plant response rating ([6]; 500 g ai/ha, 0 to 100 scale): 0
- Plant response rating, Corn (corn (Zea mays); [12]): 0
- Corn plant response rating (corn (Zea mays); 500 g ai/ha, 0 to 100 scale): 0
- Plant response rating, Ragweed [7, 13]: 80
- Ragweed plant response rating [7, 14]: 80
- Ragweed plant response rating [7, 15]: 40
- Plant response rating, Ragweed [7, 16]: 90
- Plant response rating, Barnyardgrass [8, 13]: 30
- Barnyardgrass plant response rating [8, 14]: 10
- Barnyardgrass plant response rating [8, 15]: 0
- Plant response rating, Barnyardgrass [8, 16]: 40
- Plant response rating, Pigweed [9, 13]: 90
- Pigweed plant response rating [9, 14]: 90
- Pigweed plant response rating [9, 15]: 80
- Plant response rating, Pigweed [9, 16]: 100
- Plant response rating, Ryegrass, Italian [10, 13]: 0
- Ryegrass, Italian plant response rating [10, 14]: 50
- Ryegrass, Italian plant response rating [10, 15]: 0
- Plant response rating, Ryegrass, Italian [10, 16]: 40
- Plant response rating, Kochia (kochia (Kochia scoparia); [13]): 70
- Kochia plant response rating (kochia (Kochia scoparia); [14]): 80
- Kochia plant response rating (kochia (Kochia scoparia); [15]): 0
- Plant response rating, Kochia (kochia (Kochia scoparia); [16]): 40
- Plant response rating, Foxtail, Giant [11, 13]: 50
- Foxtail, Giant plant response rating [11, 14]: 70
- Foxtail, Giant plant response rating [11, 15]: 20
- Plant response rating, Foxtail, Giant [11, 16]: 70

Compound: Cc1nn(C)c(=O)c(-c2ccc(Cl)c3ccccc23)c1OS(=O)(=O)C(F)(F)F [Compound 158]
- Plant response rating, Barnyardgrass [1]: 0
- Plant response rating, Sedge, Umbrella [2]: 65
- Plant response rating, Ducksalad [3]: 0
- Plant response rating, Rice (rice (Oryza sativa)): 20
- Plant response rating, Blackgrass [4, 17]: 50
- Plant response rating, Blackgrass [4, 18]: 60
- Plant response rating, Galium [5, 17]: 80
- Plant response rating, Galium [5, 18]: 90
- Plant response rating, Wheat [6, 17]: 0
- Plant response rating, Wheat [6, 18]: 0
- Plant response rating, Corn (corn (Zea mays); [17]): 0
- Plant response rating, Corn (corn (Zea mays); [18]): 0
- Plant response rating, Ragweed [7, 19]: 90
- Plant response rating, Ragweed [7, 20]: 100
- Plant response rating, Ragweed [7, 21]: 50
- Plant response rating, Ragweed [7, 16]: 80
- Plant response rating, Barnyardgrass [8, 19]: 10
- Plant response rating, Barnyardgrass [8, 20]: 50
- Plant response rating, Barnyardgrass [8, 21]: 10
- Plant response rating, Barnyardgrass [8, 16]: 60
- Plant response rating, Pigweed [9, 19]: 80
- Plant response rating, Pigweed [9, 20]: 100
- Plant response rating, Pigweed [9, 21]: 10
- Plant response rating, Pigweed [9, 16]: 100
- Plant response rating, Ryegrass, Italian [10, 19]: 90
- Plant response rating, Ryegrass, Italian [10, 20]: 100
- Plant response rating, Ryegrass, Italian [10, 21]: 80
- Plant response rating, Ryegrass, Italian [10, 16]: 80
- Plant response rating, Kochia (kochia (Kochia scoparia); [19]): 90
- Plant response rating, Kochia (kochia (Kochia scoparia); [20]): 100
- Plant response rating, Kochia (kochia (Kochia scoparia); [21]): 30
- Plant response rating, Kochia (kochia (Kochia scoparia); [16]): 40
- Plant response rating, Foxtail, Giant [11, 19]: 30
- Plant response rating, Foxtail, Giant [11, 20]: 60
- Plant response rating, Foxtail, Giant [11, 21]: 10
- Plant response rating, Foxtail, Giant [11, 16]: 40

Compound: Cc1nn(C)c(=O)c(-c2cccc3ccc(C4CC4)cc23)c1O [Compound 71]
- Plant response rating, Blackgrass [4, 12]: 30
- Blackgrass plant response rating ([4]; 500 g ai/ha, 0 to 100 scale): 40
- Plant response rating, Galium [5, 12]: 70
- Galium plant response rating ([5]; 500 g ai/ha, 0 to 100 scale): 90
- Plant response rating, Wheat [6, 12]: 0
- Wheat plant response rating ([6]; 500 g ai/ha, 0 to 100 scale): 20
- Plant response rating, Corn (corn (Zea mays); [12]): 0
- Corn plant response rating (corn (Zea mays); 500 g ai/ha, 0 to 100 scale): 20
- Plant response rating, Ragweed [7, 13]: 70
- Ragweed plant response rating [7, 14]: 70
- Ragweed plant response rating [7, 15]: 0
- Plant response rating, Ragweed [7, 16]: 20
- Plant response rating, Barnyardgrass [8, 13]: 0
- Barnyardgrass plant response rating [8, 14]: 20
- Barnyardgrass plant response rating [8, 15]: 0
- Plant response rating, Barnyardgrass ([8]; Preemergence, 500 g ai/ha, 0 to 100 scale, 0 no effect, 100 complete control): 20
- Plant response rating, Pigweed [9, 13]: 70
- Pigweed plant response rating [9, 14]: 80
- Pigweed plant response rating [9, 15]: 30
- Plant response rating, Pigweed [9, 16]: 100
- Plant response rating, Ryegrass, Italian [10, 13]: 30
- Ryegrass, Italian plant response rating [10, 14]: 90
- Ryegrass, Italian plant response rating [10, 15]: 0
- Plant response rating, Ryegrass, Italian [10, 16]: 70
- Plant response rating, Kochia (kochia (Kochia scoparia); [13]): 50
- Kochia plant response rating (kochia (Kochia scoparia); [14]): 70
- Kochia plant response rating (kochia (Kochia scoparia); [15]): 0
- Plant response rating, Kochia (kochia (Kochia scoparia); [16]): 20
- Plant response rating, Foxtail, Giant [11, 13]: 0
- Foxtail, Giant plant response rating [11, 14]: 20
- Foxtail, Giant plant response rating [11, 15]: 0
- Plant response rating, Foxtail, Giant [11, 16]: 50
